One series addresses cMet enzyme (Homo sapiens, UniProt P08581). Put plainly: cMet Homogeneous Time Resolved Fluorescence (HTRF) in vitro assay. Particulars: relative IC50; read-out: c-Met IC50 (HTRF). It counts as biochemical. An excerpt:
This assay is based on HTRF technology and it is used to detect the phosphorylation of biotin labeled tyrosine peptide by cMet enzyme. After the reaction is completed, XL665 labeled streptavidin is used to recognize the biotin unit and a Europium (Eu3+) labeled anti-phospho-tyrosine antibody is used to recognize the phosphorylated tyrosine. The detection process relies on the transfer of energy between the excited Eu3+ and the XL665 labeled streptavidin. The aim of this protocol is to calculate the ability of test compounds to inhibit the phosphorylation of the product of this reaction and calculate their relative IC50 values.
A reference compound, if desired, may be prepared as a 1 mM stock solution in 100% DMSO and test compounds are prepared as 10 mM stock solutions in 100% DMSO. 1 mM reference compound and 10 mM test compounds are pre-diluted to 8 μM and 80 μM 10% DMSO solutions in a 96-well dilution plate. Compounds are serially diluted (1:3) using Tecan Freedom EVO 200 and 10-point dilution curves are generated for each of the compounds tested. 10 μL of serially diluted compounds are transferred to a 96-well assay plate using Temo (Tecan). […] The assay plate is incubated at RT for 60 min before reading the fluorescence signals at 620 nm emission and 665 nm […] in a Victor3 instrument (PerkinElmer Corporation). […]
A general note: TR-FRET usually uses a lanthanide donor and a delayed reading to cut background.

Series [1] in a line: Rat bioavailability study. It counts as in vivo. As for the experimental part:
In rat bioavailability studies, each compound is administered intravenously (IV) or orally (PO). Intravenous dosing is formulated in solution formulation and oral dosing is formulated in 10% w/v acacia. Rat blood samples are collected using anti-coagulant (EDTA) collection tubes and centrifugation is performed to obtain plasma samples. Aliquots of plasma are pipetted and stored immediately at <−20° C. Shipments of plasma samples are packed in dry ice if needed and samples are frozen at <−20° C. until analysis.
A stock solution of each drug is prepared and is diluted into pooled rat plasma to prepare standards. Plasma standards or samples are treated by protein precipitation or liquid-liquid extraction using organic solvent containing internal standard. The mixtures are centrifuged and aliquots of the resulting supernatant fractions are transferred. In the case of protein precipitation, supernatant is diluted and analyzed using a Mass Spectrometer coupled to a HPLC System and an autosampler. In the case of liquid-liquid-extraction, supernatant is dried under N2 at 40° C., reconstituted and analyzed using a Mass Spectrometer coupled to a HPLC System and an autosampler. Quantitation is performed using multiple reaction monitoring (MRM) and linear regression plots of compounds to internal standard peak area ratios versus drug concentrations.

Series [2] is described as follows: Plasma concentration in IVTI studies. In kind it is in vivo. Particulars: athymic nude, mouse, oral, 10% acacia. The protocol: In IVTI studies, each compound is administered orally and formulated in 10% w/v acacia. Mouse blood samples are collected with anti-coagulant (EDTA-purple top Vacutainer tube) post-dose using cardiac puncture techniques. Tubes are inverted for 3-5 times and are placed on ice until centrifugation at 3000 RPM (1800×g) for 10 min at 4° C. to obtain plasma. Aliquots of plasma are pipetted and stored in a clean 96 well plate. Plasma samples are stored immediately at −80° C. Shipments of plasma samples are packed in dry ice and samples are frozen at −80° C. until analysis.
A 0.1-mg/mL stock solution of each drug was prepared and is serially diluted into pooled mouse plasma to prepare standards ranging from 1 to 5000 ng/mL. Plasma standards or samples (0.025 mL) in 96-well plates are treated by protein precipitation with the addition of a 0.1-0.2 ml of methanol: acetonitrile (1/1, v/v) containing internal standard. […] Samples and standards are analyzed with a Sciex API 4000 Triple Quadrupole Mass Spectrometer (Sciex, Division of MDS Inc., Toronto, Canada) coupled to a Shimadzu HPLC System (LC-10AD, Shimadzu Corporation) and a Gilson 215 Autosampler. […] Quantitation is performed using multiple reaction monitoring (MRM) at the following transitions: Example 1 (m/z 363.05 to m/z 163.10) and the reference compound 20 (m/z 363.05 to m/z 163.10). […]

Where [3] appears, read: plasma, PO 10 mg/kg in 10% acacia, Example 1 dosed as mesylate salt.

Results on one compound are retold here after patent US8268836B2, “Compound useful as a c-Met inhibitor” (Eli Lilly and Company, priority 2010, dated 2012).

Read-outs that look alike come from different tables or passages of the source.

The IC50 is the point on the concentration scale where inhibition reaches its midpoint. One may read the clearance as the volume of plasma or blood freed of the substance per unit of time. Usually AUC stands for the area under the concentration-time curve, a measure of exposure. For orientation: Cmax means the maximum level reached in the sampled fluid or tissue. The term Tmax denotes the time from dosing to the highest level. The bioavailability is the share of a dose that reaches the circulation, judged against a reference dose that is usually intravenous.

Chain of cMet enzyme (P08581 25-1390): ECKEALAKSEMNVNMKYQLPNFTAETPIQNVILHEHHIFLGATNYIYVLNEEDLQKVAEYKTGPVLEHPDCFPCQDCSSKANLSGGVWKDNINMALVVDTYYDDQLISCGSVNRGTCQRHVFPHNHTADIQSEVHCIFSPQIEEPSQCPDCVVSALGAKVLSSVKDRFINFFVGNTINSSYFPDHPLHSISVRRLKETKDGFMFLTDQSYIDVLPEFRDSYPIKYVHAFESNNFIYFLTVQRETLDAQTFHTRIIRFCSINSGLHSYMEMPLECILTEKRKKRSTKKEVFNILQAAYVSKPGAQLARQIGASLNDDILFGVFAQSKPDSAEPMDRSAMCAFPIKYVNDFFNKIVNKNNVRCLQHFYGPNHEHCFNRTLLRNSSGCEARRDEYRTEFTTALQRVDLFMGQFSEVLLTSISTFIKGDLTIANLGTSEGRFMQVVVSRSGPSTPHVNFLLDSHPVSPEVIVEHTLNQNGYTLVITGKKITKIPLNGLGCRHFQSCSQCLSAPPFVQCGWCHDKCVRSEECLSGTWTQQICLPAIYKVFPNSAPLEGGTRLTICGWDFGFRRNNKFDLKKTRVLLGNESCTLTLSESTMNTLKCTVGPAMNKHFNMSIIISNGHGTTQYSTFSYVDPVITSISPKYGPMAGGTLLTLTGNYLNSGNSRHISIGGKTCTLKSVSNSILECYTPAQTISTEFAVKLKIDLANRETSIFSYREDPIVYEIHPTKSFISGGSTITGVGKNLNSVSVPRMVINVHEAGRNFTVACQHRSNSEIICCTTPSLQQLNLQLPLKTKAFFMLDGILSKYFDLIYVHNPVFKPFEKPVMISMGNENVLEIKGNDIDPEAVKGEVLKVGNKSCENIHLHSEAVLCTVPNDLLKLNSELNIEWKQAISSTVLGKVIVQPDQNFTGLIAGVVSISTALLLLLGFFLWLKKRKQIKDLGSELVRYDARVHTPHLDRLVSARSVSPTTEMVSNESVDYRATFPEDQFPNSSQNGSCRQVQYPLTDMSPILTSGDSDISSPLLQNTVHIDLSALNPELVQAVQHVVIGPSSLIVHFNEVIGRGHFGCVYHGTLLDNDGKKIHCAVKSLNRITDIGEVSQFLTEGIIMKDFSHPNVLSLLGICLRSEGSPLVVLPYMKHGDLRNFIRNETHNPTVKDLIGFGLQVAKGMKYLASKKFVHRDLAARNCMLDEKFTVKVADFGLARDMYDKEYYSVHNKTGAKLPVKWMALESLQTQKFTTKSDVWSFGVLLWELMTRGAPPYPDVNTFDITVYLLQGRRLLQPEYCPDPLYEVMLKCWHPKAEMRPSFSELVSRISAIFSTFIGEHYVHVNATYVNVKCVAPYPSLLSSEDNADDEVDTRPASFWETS

With `Cn1cc(-c2ccc3nnc(Sc4ccc5nn(C)cc5c4)n3n2)cn1` [Example 1, 6-(1-Methyl-1H-pyrazol-4-yl)-3-(2-methyl-2H-indazol-5-ylthio)-[1,2,4]triazolo[4,3-b]pyridazine], the IC50 at cMet enzyme worked out at 0.01 µM. In addition, the “fold increase in oral bioavailability vs reference compound” value in series [1] was 4.5 fold. Besides, in series [1] (1 mg/kg intravenous dose), the “fold longer terminal elimination half life vs reference compound” value is given as 4 fold and the “fold lower plasma clearance vs reference compound” value worked out at 18 fold. In addition, in series [1] (10 mg/kg oral dose, 10% acacia), the “fold higher exposure by peak plasma concentration vs reference compound” value came out at 57 fold and the “fold higher exposure by plasma AUC vs reference compound” value turned out to be 93 fold. For the same compound, the clearance in series [1] (plasma, IV 1 mg/kg solution, Example 1 dosed as mesylate salt) came to 1.7 mL/min/kg. Also, in series [1] (plasma, IV 1 mg/kg solution, Example 1 dosed as mesylate salt, read-out: T½ (converted)), the half-life was 2.3 h. Further, the Vd in series [1] (plasma, IV 1 mg/kg solution, Example 1 dosed as mesylate salt, read-out: Vdss) is 0.3 L/kg. Moreover, in series [1] (setting [3]), the area under the curve (AUC) was found to be 73800 ng·h/mL, the Cmax is 9400 ng/mL and the Tmax turned out to be 3.33 h. Besides, the bioavailability in series [1] (plasma, PO 10 mg/kg vs IV 1 mg/kg, Example 1 dosed as mesylate salt, read-out: F % (oral bioavailability)) is 65.8%. In series [2] (8 mg/kg, read-out: Plasma conc. 8 mg/Kg after 8 h), the concentration at 8 h worked out at 141 ng/mL. The concentration at 8 h in series [2] (20 mg/kg, read-out: Plasma conc. 20 mg/Kg after 8 h) worked out at 318 ng/mL.
